Where two headings read alike, the source gives them in different places.
Legend:
[1] = Bioavailability on oral administration, citrate of Compound 1 compared to free base; type: in vivo; details: orally administered
[2] = Solubility of citrate of Compound 1 depending on pH; type: physicochemical

Cc1cccc(C)c1CNc1cc(C(=O)N2CCC2)cn2c(C)c(C)nc12.O=C(O)CC(O)(CC(=O)O)C(=O)O [citrate of Compound 1, azetidin-1-yl{8-[(2,6-dimethylbenzyl)amino]-2,3-dimethylimidazo[1,2-a]pyridin-6-yl}methanone citrate]
AUC compared to Compound 1 free base [1]: at least five | Cmax compared to Compound 1 free base [1]: ≥ 11 times | time to reach highest blood concentration ([1]; compared to Compound 1 free base): within a short time compared to Compound 1 | solubility ([2]; aqueous buffer, pH 3 or higher, particularly pH 3.3 or higher, read-out: solubility): < 1500 µg/mL | solubility ([2]; below pH 3): very excellent solubility | solubility ([2]; pH 3 to 4.7, due to SBE-β-CD): excellent solubility
